The target in data set [1] is T1, neuronal nicotinic acetylcholine receptors (Rattus norvegicus, UniProt P09483+P12390).
T1 construct: crude synaptic membrane preparations from whole rat brain; from tissue; host or cells: whole rat brain, crude synaptic membranes
Nature of the data set: [3H]-cytisine binding to neuronal nicotinic acetylcholine receptors, crude synaptic membranes from whole rat brain. To be noted: [3H]-CYT 1.25 nM, whole rat brain membranes, 60 minutes at 4° C.; Cheng and Prusoff correction; Table 1; read-out: Ki. The method, then:
The in vitro protocols for determination of nicotinic acetylcholine channel receptor binding potencies of ligands was determined as follows.
Binding of [^3H]-cytisine ([^3H]-CYT) to neuronal nicotinic acetylcholine receptors was accomplished using crude synaptic membrane preparations from whole rat brain (Pabreza et al., Molecular Pharmacol., 1990, 39:9). Washed membranes were stored at −80° C. prior to use. Frozen aliquots were slowly thawed and resuspended in 20 volumes of buffer (containing: 120 mM NaCl, 5 mM KCl, 2 mM MgCl2, 2 mM CaCl2 and 50 mM Tris-Cl, pH 7.4 @4° C.). After centrifuging at 20,000×g for 15 minutes, the pellets were resuspended in 30 volumes of buffer.
The test compounds were dissolved in water to make 10 mM stock solutions. Each solution was then diluted (1:100) with buffer (as above) and further taken through seven serial log dilutions to produce test solutions from 10^−5 to 10^−11 M.
Homogenate (containing 125-150 µg protein) was added to triplicate tubes containing the range of concentrations of test compound described above and [^3H]-CYT (1.25 nM) in a final volume of 500 μL. Samples were incubated for 60 minutes at 4° C., then rapidly filtered through Whatman GF/B filters presoaked in 0.5% polyethyleneimine using 3×4 mL of ice-cold buffer. The filters are counted in 4 mL of Ecolume® (ICN). Nonspecific binding was determined in the presence of 10 μM (−)-nicotine and values were expressed as a percentage of total binding. IC50 values were determined with a four-parameter non-linear regression and IC50 values were converted to K1 values using the Cheng and Prusoff correction (K1=IC50/(1+[ligand]/Kd of ligand).
Each Example number corresponds to the synthetic Examples described above. […] The lower the Ki value, the more affinity for neuronal nicotinic acetylcholine receptors.

For the next data set, the system named is mouse hot plate paradigm. The data set is described as follows: mouse hot plate paradigm (analgesia, latency until tenth jump). Type of data set: in vivo. The conditions noted are these: mice, intraperitoneal, dosed 30 minutes prior to testing, hot plate 55° C.; for Analgesic MED (μmol/kg): footnote symbols for no effect; for Analgesic MED: minimally effective dose among the doses tested. The method, then:
An in vivo protocol was utilized to determine the effectiveness of nicotinic acetylcholine receptor ligands as analgesic agents in the mouse hot plate paradigm.
Separate groups of mice, (n=8/group) were utilized for each dose group. All drugs were administered by the intraperitoneal route of administration. Test drugs were dissolved in water to make a 6.2 mM stock solution. Animals were dosed with this solution (10 mL/kg body weight) for a 62 micromol/kg dose. Lower doses were administered similarly, following serial dilution of the stock solution in half-log increments. Animals were dosed 30 minutes prior to testing in the hot plate. The hot-plate utilized was an automated analgesia monitor (Model #AHP16AN, Omnitech Electronics, Inc. of Columbus, Ohio). The temperature of the hot plate was maintained at 55° C. and a cut-off time of 180 seconds was utilized. A control was run against each compound tested. Latency until the tenth jump was recorded as the dependent measure. An increase in the tenth jump latency relative to the control was considered a significant effect.

T1 sequence (P09483 31-630): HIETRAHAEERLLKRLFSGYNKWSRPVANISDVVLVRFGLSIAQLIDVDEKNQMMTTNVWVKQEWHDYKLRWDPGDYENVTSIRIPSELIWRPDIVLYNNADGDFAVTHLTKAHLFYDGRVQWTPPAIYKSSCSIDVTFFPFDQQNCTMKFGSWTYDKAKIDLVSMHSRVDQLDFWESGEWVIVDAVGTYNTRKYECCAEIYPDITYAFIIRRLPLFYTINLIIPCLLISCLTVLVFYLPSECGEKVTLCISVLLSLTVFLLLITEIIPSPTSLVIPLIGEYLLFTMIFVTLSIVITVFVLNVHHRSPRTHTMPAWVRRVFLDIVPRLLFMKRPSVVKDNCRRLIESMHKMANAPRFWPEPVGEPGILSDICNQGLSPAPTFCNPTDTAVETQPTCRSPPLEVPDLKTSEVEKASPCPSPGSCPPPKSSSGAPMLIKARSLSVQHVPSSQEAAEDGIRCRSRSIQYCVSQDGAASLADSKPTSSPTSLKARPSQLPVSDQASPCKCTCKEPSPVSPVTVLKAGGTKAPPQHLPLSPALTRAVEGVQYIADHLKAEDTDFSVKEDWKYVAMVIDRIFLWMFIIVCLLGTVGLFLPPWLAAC
T1 sequence (P12390 25-500): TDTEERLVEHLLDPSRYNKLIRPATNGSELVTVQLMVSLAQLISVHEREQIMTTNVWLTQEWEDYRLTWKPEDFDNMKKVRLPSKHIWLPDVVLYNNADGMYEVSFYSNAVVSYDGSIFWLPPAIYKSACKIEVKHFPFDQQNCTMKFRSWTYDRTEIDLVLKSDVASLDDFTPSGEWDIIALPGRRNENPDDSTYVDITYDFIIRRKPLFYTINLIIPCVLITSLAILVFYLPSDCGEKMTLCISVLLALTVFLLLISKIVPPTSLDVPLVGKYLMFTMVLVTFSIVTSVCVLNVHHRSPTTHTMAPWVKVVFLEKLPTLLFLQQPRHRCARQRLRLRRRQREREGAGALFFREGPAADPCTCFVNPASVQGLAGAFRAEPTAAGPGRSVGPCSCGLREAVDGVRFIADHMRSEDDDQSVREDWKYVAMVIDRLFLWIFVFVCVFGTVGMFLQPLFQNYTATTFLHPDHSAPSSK

In the case of `CN(C)[C@H](COc1cnc(Cl)c(C=Cc2ccncc2)c1)Cc1ccccc1` [Example 24, 5-[(S)-2-N-dimethyl-amino-3-phenyl-1-propyloxy]-2-chloro-3-(4-vinylpyridinyl) pyridine di-p-toluenesulfonic acid], the melting point was in the range of 81 to 83 °C. The Ki in data set [1] is 4.63 nM. In the data set with mouse hot plate paradigm, the “Analgesic MED (μmol/kg)” value is reported as “* (no effect at 62)”.

Consider `CC[C@@H](COc1cnc(Cl)c(C=Cc2ccncc2)c1)N(C)C` [Example 20, 5-[(S)-2-N-dimethylamino-1-butyloxy]-2-chloro-3-(4-vinylpyridinyl) pyridine di-p-toluenesulfonic acid], for which the melting point lay in the range of 73 to 75 °C. The Ki in data set [1] stood at 3.61 nM.

`CN[C@@H](C)COc1cnc(Cl)c(Br)c1.Cc1ccc(S(=O)(=O)O)cc1` [Example 9, 5-[(S)-2-methylamino-1-propyloxy]-2-chloro-3-bromo pyridine p-toluenesulfonic acid]: in data set [1], the Ki turned out to be 10.9 nM. In addition, in the data set on mouse hot plate paradigm, the “Analgesic MED (μmol/kg)” value is reported as “** (no effect at 6.2)”.

As to `C[C@@H](COc1ccc(F)nc1)N(C)C.Cc1ccc(S(=O)(=O)O)cc1` [Example 5, 5-[(S)-2-dimethylamino-1-propyloxy]-2-fluoro pyridine p-toluenesulfonic acid], the Ki in data set [1] is 100 nM. The “Analgesic MED (μmol/kg)” value in the data set on mouse hot plate paradigm is “* (no effect at 62)”.

`C[C@H](N)COc1cnc(Cl)c(Br)c1.Cc1ccc(S(=O)(=O)O)cc1` [Example 7, 5-[(S)-2-amino-1-propyloxy]-2-chloro-3-bromo pyridine p-toluenesulfonic acid]: the Ki in data set [1] was 1.55 nM. In addition, the “Analgesic MED (μmol/kg)” value in the data set with mouse hot plate paradigm was “* (no effect at 62)”.

Regarding `Cc1cc(OC[C@H](C)N)cnc1Cl.Cc1ccc(S(=O)(=O)O)cc1` [Example 10, 5-[(S)-2-amino-1-propyloxy]-2-chloro-3-methyl pyridine p-toluenesulfonic acid], the Ki in data set [1] is 0.525 nM. The “Analgesic MED” value with mouse hot plate paradigm worked out at 62 µmol/kg.

For `Cc1cc(OC[C@@H](C)N)cnc1Cl.Cc1ccc(S(=O)(=O)O)cc1` [Example 35, 5-[(R)-2-amino-1-propyloxy]-2-chloro-3-methyl pyridine p-toluenesulfonic acid], the Ki in data set [1] was 0.985 nM. Also, in the data set with mouse hot plate paradigm, the “Analgesic MED” value turned out to be 62 µmol/kg.

Turning to `CN[C@H](C)COc1ccc(Cl)nc1.Cc1ccc(S(=O)(=O)O)cc1` [Example 28, 5-[(R)-2-methylamino-1-propyloxy]-2-chloropyridine p-toluenesulfonic acid], the Ki in data set [1] worked out at 5.87 nM. The “Analgesic MED” value in the data set on mouse hot plate paradigm is 62 µmol/kg.

Take `C[C@@H](COc1cnc(Cl)c(Br)c1)N(C)C.Cc1ccc(S(=O)(=O)O)cc1` [Example 8, 5-[(S)-2-dimethylamino-1-propyloxy]-2-chloro-3-bromo pyridine p-toluenesulfonic acid]: the Ki in data set [1] is 30.8 nM. Besides, the “Analgesic MED” value with mouse hot plate paradigm was 62 µmol/kg.

Regarding “5-[(S)-2-amino-3-phenyl-1-propyloxy]-2-chloro-3-(4-vinylpyridinyl) pyridine di-p-toluenesulfonic acid [Example 23]”, the Ki in data set [1] was 9.89 nM. The “Analgesic MED (μmol/kg)” value with mouse hot plate paradigm is “* (no effect at 62)”.

In turn, `CC(COc1cnc(Cl)c(C=Cc2ccncc2)c1)N(C)C` (single isomer, unassigned) [Example 14] had a melting point of 79 to 81 °C. For the same molecule, the Ki in data set [1] is 0.367 nM. Further, the “Analgesic MED (μmol/kg)” value in the data set with mouse hot plate paradigm is “* (no effect at 62)”.

Turning to `CN[C@H](C)COc1ccc(F)nc1.Cc1ccc(S(=O)(=O)O)cc1` [Example 31, 5-[(R)-2-methylamino-1-propyloxy]-2-fluoro pyridine p-toluenesulfonic acid], the inhibition constant (Ki) in data set [1] worked out at 11.4 nM. Also, the “Analgesic MED” value with mouse hot plate paradigm turned out to be 62 µmol/kg.

Molecule `CC(COc1cnc(Cl)c(C=Cc2ccncc2)c1)N(C)C` (single isomer, unassigned) [Example 39] returned a melting point of 81 to 83 °C. In data set [1], the Ki was 0.103 nM. Moreover, the “Analgesic MED (μmol/kg)” value in the data set on mouse hot plate paradigm was “* (no effect at 62)”.

With `CC[C@H](N)COc1ccc(Cl)nc1.Cc1ccc(S(=O)(=O)O)cc1` [Example 15, 5-[(S)-2-amino-1-butyloxy]-2-chloro pyridine p-toluenesulfonic acid], the Ki in data set [1] was 14.7 nM. The “Analgesic MED (μmol/kg)” value with mouse hot plate paradigm is listed as “* (no effect at 62)”.

With `C[C@@H](N)COc1cnc(Cl)c(Br)c1.Cc1ccc(S(=O)(=O)O)cc1` [Example 32, 5-[(R)-2-amino-1-propyloxy]-2-chloro-3-bromo pyridine p-toluenesulfonic acid], in data set [1], the Ki is 1.54 nM. Further, in the data set on mouse hot plate paradigm, the “Analgesic MED” value turned out to be 62 µmol/kg.

As to `CN[C@@H](C)COc1ccc(Cl)nc1.Cc1ccc(S(=O)(=O)O)cc1` [Example 3, 5-[(S)-2-methylamino-1-propyloxy]-2-chloro pyridine p-toluenesulfonic acid], in data set [1], the Ki turned out to be 40.6 nM. For the same molecule, the “Analgesic MED” value in the data set with mouse hot plate paradigm worked out at 62 µmol/kg.

For `C[C@@H](N)COc1ccc(F)nc1.Cc1ccc(S(=O)(=O)O)cc1` [Example 29, 5-[(R)-2-amino-1-propyloxy]-2-fluoro pyridine p-toluenesulfonic acid], in data set [1], the Ki turned out to be 6.6 nM. The “Analgesic MED” value with mouse hot plate paradigm is 62 µmol/kg.

Consider `C[C@H](COc1ccc(F)nc1)N(C)C.Cc1ccc(S(=O)(=O)O)cc1` [Example 30, 5-[(R)-2-dimethylamino-1-propyloxy]-2-fluoro pyridine p-toluenesulfonic acid], for which the Ki in data set [1] turned out to be 70.2 nM. Also, the “Analgesic MED (μmol/kg)” value with mouse hot plate paradigm is given as “* (no effect at 62)”.

On to `CN[C@@H](C)COc1cnc(Cl)c(C)c1.Cc1ccc(S(=O)(=O)O)cc1` [Example 12, 5-[(S)-2-methylamino-1-propyloxy]-2-chloro-3-methyl pyridine p-toluenesulfonic acid], for which the Ki in data set [1] turned out to be 5.47 nM. Also, the “Analgesic MED” value in the data set with mouse hot plate paradigm is 62 µmol/kg.

The term Ki denotes a dissociation constant, usually derived from enzyme kinetics or from competition with a known ligand. Broadly, the melting point is the temperature, or range, at which the solid turns liquid.

(Values after patent US20010034357A1, “Substituted pyridine compounds useful for controlling chemical synaptic transmission” (priority 2000, published 2001).)
